The record followed here is US9428478B2, “Piperazine derivatives, compositions, and uses related thereto” (Emory University, priority 2011, dated 2016).

The structures appear in SMILES notation. Values after ≈ are worked out from the molar mass of the structure shown.

Series [1] deals with T1, Nox2 (Homo sapiens (Human), UniProt P04839). Put plainly: Nox2 activity assay for primary screening (cell free, human neutrophil plasma membranes, LO12 luminescence). Type of series: biochemical. The procedure:
Nox2 activity assay for primary screening: Plasma membranes were prepared from human neutrophils, which express large amounts of Nox2, stored at −80 C until use. See Curnutte et al., J. Biol. Chem. 1987, 262, 6450-6452, hereby incorporated by reference. Membranes are mixed with recombinant, purified cytosolic regulatory proteins (p67Np47N chimera, and a constitutively active mutant of Rac, Rac1(Q61)) and FAD, along with varying concentrations of compound, and LO12, which emits light when it reacts with ROS. The reaction is initiated by addition of NADPH and SDS (an artificial activator of Nox2).
Target sequence in this assay (P04839 2-570): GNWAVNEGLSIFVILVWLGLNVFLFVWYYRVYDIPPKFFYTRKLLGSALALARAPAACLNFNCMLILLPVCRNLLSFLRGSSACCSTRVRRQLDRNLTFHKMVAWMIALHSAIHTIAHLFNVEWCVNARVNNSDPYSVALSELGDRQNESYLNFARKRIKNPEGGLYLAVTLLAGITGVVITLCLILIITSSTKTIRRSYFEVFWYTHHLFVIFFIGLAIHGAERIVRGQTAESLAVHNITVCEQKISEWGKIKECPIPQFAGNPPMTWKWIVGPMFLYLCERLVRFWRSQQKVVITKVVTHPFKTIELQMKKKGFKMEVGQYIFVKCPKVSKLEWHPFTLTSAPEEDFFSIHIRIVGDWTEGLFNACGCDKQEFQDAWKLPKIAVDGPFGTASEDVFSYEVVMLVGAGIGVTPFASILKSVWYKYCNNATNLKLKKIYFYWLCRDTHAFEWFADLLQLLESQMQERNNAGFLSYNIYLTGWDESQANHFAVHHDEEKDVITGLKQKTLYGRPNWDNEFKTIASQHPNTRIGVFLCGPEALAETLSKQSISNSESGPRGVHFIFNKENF

For series [2], the target named is T1, Nox2. Put plainly: Nox2 assay in human neutrophils (PMN), LO12 luminescence. Conditions: Table 3, human neutrophils; read-out: Nox2 (PMN). Type of series: cell-based. The method, then: Nox2 assay in human neutrophils: Human neutrophils were obtained from healthy volunteers (REF). LO12 luminescence was quantified as above. Nox4 assay using stably transfected HEK cell: HEK cells stably transfected with human Nox4 were incubated with varying concentrations of compound along with LO12.
Target sequence in this assay (P04839 whole entry, looked up): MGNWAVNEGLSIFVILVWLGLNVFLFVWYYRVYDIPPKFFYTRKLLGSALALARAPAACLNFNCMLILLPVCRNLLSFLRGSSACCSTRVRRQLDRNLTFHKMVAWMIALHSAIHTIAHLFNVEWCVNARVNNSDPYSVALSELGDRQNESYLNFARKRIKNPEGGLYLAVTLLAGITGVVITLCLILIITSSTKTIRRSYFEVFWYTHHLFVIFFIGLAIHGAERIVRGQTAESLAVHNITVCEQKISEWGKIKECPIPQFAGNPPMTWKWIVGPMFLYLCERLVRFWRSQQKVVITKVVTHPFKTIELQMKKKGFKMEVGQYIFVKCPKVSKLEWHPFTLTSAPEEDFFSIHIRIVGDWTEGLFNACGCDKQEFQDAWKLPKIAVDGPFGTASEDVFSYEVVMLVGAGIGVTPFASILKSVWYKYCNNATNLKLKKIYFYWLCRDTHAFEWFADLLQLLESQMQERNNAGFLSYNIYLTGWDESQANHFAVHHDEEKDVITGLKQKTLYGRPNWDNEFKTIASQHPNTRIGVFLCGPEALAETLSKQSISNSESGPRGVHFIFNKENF
Target sequence in this assay (P13498 whole entry partner, looked up): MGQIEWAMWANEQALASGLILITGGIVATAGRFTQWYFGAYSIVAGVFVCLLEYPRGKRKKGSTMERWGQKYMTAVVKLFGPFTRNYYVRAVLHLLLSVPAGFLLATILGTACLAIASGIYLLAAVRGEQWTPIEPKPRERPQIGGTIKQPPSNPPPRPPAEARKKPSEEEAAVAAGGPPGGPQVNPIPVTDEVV

Series [3] deals with Nox1 (Homo sapiens (Human), UniProt Q9Y5S8). Put plainly: Nox1 inhibition. The following applies: Table 3. Format: biochemical.
Nox1, sequence (Q9Y5S8 whole entry, species assumed): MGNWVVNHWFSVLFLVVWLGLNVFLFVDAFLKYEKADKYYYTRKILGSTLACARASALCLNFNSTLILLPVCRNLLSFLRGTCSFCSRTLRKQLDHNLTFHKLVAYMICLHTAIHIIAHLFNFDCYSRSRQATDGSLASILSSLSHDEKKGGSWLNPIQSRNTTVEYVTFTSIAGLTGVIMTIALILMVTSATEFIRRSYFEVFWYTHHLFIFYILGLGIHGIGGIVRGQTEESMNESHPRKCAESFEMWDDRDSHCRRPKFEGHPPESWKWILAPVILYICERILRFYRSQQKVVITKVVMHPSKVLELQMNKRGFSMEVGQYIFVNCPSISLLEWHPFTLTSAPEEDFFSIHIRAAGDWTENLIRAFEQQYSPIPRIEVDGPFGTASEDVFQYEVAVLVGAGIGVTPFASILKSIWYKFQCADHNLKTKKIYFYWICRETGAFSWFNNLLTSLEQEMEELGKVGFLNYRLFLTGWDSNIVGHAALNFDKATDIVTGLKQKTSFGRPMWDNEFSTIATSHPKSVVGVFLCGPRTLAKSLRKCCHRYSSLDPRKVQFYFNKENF
Nox1, sequence (P13498 2-195 partner, species assumed): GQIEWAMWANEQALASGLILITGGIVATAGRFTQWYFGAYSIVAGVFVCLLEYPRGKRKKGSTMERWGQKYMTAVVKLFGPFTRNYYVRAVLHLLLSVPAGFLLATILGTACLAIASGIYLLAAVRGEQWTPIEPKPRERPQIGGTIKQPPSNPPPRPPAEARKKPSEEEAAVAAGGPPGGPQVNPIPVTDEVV
The target of series [4] is Nox5 (Homo sapiens (Human), UniProt Q96PH1). The series is described as follows: Nox5 inhibition. Format: biochemical. The following applies: Table 3.
Nox5, sequence (Q96PH1 whole entry, species assumed): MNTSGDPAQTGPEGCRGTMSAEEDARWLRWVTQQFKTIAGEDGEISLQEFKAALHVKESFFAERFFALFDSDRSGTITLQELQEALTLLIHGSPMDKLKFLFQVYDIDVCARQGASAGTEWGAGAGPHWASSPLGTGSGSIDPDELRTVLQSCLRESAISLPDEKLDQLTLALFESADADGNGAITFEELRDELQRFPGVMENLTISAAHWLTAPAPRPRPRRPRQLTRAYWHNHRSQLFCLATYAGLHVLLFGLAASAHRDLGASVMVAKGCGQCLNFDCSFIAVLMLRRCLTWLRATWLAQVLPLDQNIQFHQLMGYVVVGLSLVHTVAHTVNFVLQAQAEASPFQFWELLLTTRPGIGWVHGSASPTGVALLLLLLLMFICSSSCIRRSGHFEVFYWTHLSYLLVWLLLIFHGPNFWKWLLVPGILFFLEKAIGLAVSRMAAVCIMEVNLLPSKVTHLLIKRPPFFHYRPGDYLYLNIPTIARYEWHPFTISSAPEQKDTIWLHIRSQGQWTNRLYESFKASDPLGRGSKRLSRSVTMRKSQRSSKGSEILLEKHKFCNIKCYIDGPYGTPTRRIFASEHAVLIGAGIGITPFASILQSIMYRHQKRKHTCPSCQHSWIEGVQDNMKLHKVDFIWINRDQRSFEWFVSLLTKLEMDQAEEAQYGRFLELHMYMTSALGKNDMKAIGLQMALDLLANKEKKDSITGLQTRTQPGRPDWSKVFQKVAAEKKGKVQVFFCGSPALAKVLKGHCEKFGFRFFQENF
The nature of series [5]: Solubility. Format: physicochemical.
In series [6] the target is xanthine oxidase (Homo sapiens (Human), UniProt P47989). The series is described as follows: Assay control: xanthine oxidase (XO) replaces Nox2 as the source of ROS, LO12 luminescence. Format: biochemical. Conditions: Table 2, xanthine oxidase control. The procedure: Assay controls. To rule out interference with either Nox2 or Nox4 luminescence assays, two approaches are used. In one, xanthine oxidase replaces the Nox2 enzymatic system as the source of ROS in the Nox2/LO12 assay. Xanthine is added to initiate the reaction and LO12 luminescence is recorded. In the other, exogenous H2O2 is supplied in place of the Nox4 expressing H2O2-generating cells and luminescence is recorded.
xanthine oxidase, sequence (P47989 whole entry, species assumed): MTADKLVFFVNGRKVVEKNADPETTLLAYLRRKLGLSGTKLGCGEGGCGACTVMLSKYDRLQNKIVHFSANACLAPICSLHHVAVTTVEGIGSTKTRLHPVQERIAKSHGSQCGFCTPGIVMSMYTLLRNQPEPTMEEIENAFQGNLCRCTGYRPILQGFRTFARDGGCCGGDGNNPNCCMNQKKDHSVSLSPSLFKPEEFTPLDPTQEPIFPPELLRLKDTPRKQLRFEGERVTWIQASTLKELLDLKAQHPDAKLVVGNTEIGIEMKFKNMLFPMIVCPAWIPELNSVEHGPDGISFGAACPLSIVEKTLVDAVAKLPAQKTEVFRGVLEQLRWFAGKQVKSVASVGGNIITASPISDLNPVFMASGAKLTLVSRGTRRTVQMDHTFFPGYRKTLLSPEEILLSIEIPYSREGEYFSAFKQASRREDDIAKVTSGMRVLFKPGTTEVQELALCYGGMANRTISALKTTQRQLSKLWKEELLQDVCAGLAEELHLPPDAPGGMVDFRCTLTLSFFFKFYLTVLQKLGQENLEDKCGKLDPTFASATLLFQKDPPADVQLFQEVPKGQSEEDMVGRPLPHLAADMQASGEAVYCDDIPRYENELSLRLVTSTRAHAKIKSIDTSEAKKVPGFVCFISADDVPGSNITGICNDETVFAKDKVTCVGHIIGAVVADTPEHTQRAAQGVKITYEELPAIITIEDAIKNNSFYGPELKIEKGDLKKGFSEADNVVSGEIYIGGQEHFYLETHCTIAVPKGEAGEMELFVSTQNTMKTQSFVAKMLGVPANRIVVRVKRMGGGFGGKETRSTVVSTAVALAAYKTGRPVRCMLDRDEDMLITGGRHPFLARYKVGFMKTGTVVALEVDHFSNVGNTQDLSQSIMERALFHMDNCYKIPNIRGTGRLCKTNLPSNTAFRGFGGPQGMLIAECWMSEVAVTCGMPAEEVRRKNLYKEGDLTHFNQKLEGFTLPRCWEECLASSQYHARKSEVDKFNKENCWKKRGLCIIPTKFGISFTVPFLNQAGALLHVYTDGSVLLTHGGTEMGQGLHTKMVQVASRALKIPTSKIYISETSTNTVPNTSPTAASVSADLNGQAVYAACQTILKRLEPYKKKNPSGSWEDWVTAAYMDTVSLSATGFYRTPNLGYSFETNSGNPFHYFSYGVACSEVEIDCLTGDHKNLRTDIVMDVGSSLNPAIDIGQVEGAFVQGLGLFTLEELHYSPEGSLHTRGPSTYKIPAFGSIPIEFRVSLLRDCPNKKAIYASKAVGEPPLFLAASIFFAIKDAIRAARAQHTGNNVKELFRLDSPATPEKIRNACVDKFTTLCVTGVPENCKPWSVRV

A short description of series [7]: Stability in liver S9-fractions, mouse. Format: in vitro ADME. Conditions: read-out: Stability in liver S9-fractions (t ½) Mouse (converted).
The nature of series [8]: Stability in liver S9-fractions, dog. Format: in vitro ADME. Conditions: read-out: Stability in liver S9-fractions (t ½) Dog (converted).
A short description of series [9]: Stability in liver S9-fractions, human. The following applies: read-out: Stability in liver S9-fractions (t ½) Human (converted). Type of series: in vitro ADME.
[10] abbreviates: Table 3, read-out: Nox2 (Cell Free).

As for `O=C(c1nc2cc(F)ccc2[nH]1)N1CCN(c2ccc(OC(F)(F)F)cc2)CC1` [TG6-206], the “IC50 Nox2” value in series [1] (Table 2) was “Not active”.
Regarding `CCOc1ccc(N2CCN(C(=O)c3nc4cc(F)ccc4[nH]3)CC2)cc1` [TG6-242], in series [1] (Table 2, read-out: IC50 Nox2), the IC50 turned out to be 800 nM.
By solubility is commonly meant the concentration that dissolves in the medium under given conditions. A high value points to much dissolved substance. Regarding `CCN1CCN(Cc2c(C(=O)N3CCN(c4ccc(OC)cc4)CC3)[nH]c3ccc(F)cc23)CC1` [TG7-33, (3-((4-ethylpiperazin-1-yl)methyl)-5-fluoro-1H-indol-2-yl)(4-(4-methoxyphenyl)piperazin-1-yl)methanone], the IC50 in series [1] (setting [10]) stood at 800 nM; in [2], 700 nM; in series [3] it was 400 nM; in series [4] it was 800 nM. Also, the solubility in series [5] was 250 µM (≈ 120 µg/mL).
Turning to `COc1ccc(N2CCN(C(=O)c3cc4cc(C(C)=O)ccc4[nH]3)CC2)cc1F` [TG6-252], the IC50 in series [1] (Table 2, read-out: IC50 Nox2) was determined as 3000 nM.
On to `COc1ccc(N2CCN(C(=O)c3nc4cc(F)ccc4[nH]3)CC2)cc1` [TG6-179-3, (5-fluoro-1H-benzo[d]imidazol-2-yl)(4-(4-methoxyphenyl)piperazin-1-yl)methanone], for which the IC50 was 700 nM in [1] (Table 2, read-out: IC50 Nox2); 1000 nM in series [1] (setting [10]); 400 nM in [2]; more than 20000 nM in series [6]; 600 nM in series [3]. For the same compound, in series [5], the solubility is less than 25 µM. The half-life in series [7] was 5 h; in series [8], 4 h; in [9] it was 1 h.
As a reminder, the inhibition is the percentage by which the read-out fell short of the control. A low value points to little suppression. The compound `COc1ccc(N2CCN(C(=O)[C@H]3Cc4ccccc4N3)CC2)cc1` [TG6-214] had an inhibition at 2.5 µM in [1] of 40%.
Regarding `COc1ccc(N2CCN(C(=O)c3cc4cc(C(N)=O)ccc4[nH]3)CC2)cc1` [TG6-227], the IC50 was 700 nM in series [1] (Table 2, read-out: IC50 Nox2); 600 nM in series [1] (setting [10]); 100 nM in series [2]; more than 20000 nM in series [6]; 300 nM in series [3]. In [5], this compound displayed a solubility of 190 µM (≈ 71.9 µg/mL). Besides, the half-life in series [7] is 6 h; in [8] it was 4.5 h; in [9] it was 2 h.
As to `CCN(CC)Cc1c(C(=O)N2CCN(c3ccc(OC)cc3)CC2)[nH]c2ccc(F)cc12.Cl` [TG7-34, (3-((diethylamino)methyl)-5-fluoro-1H-indol-2-yl)(4-(4-methoxyphenyl)piperazin-1-yl)methanone], the IC50 in series [1] (setting [10]) was determined as 700 nM; in series [2], 500 nM; in series [3], 600 nM; in [4], 600 nM. The compound further gave a solubility in [5] of 270 µM.
For `CCN(CC)CCNCc1c(C(=O)N2CCN(c3ccc(OC)cc3)CC2)[nH]c2ccc(F)cc12` [TG6-298, (3-(((2-(diethylamino)ethyl)amino)methyl)-5-fluoro-1H-indol-2-yl)(4-(4-methoxyphenyl)piperazin-1-yl)methanone], the IC50 amounted to 300 nM in series [1] (setting [10]), 200 nM in series [2] and 900 nM in series [3]. Moreover, the concentration in solution in [5] (solubility) was 150 µM (≈ 72.2 µg/mL).
`COc1ccc(N2CCN(C(=O)c3[nH]c4ccc(F)cc4c3CN3CCOCC3)CC2)cc1.Cl` [TG7-31, (5-fluoro-3-(morpholinomethyl)-1H-indol-2-yl)(4-(4-methoxyphenyl)piperazin-1-yl)methanone]: the IC50 in series [1] (setting [10]) was 800 nM; in [2], 200 nM; in series [3], 600 nM; in series [4] it was 1500 nM. The compound further came in with a solubility in series [5] of 276 µM.
With `COc1ccc(N2CCN(C(=O)c3cc4cc(OC)c(OC)cc4[nH]3)CC2)cc1` [TG6-181], the IC50 in [1] (Table 2, read-out: IC50 Nox2) is 800 nM; in series [6], more than 20000 nM.
In [1], `COc1ccc(N2CCN(C(=O)c3[nH]c4ccc(OC)cc4c3NC(C)=O)CC2)cc1` [TG6-208] had an inhibition at 2 µM of 60%.
As to `CCc1ccc2[nH]c(C(=O)N3CCN(c4ccc(OC)cc4)CC3)cc2c1` [TG6-202], in [1] (Table 2), the “IC50 Nox2” value is given as “Not active”. This compound yielded an IC50 in series [6] of more than 20000 nM.
Take `CCOc1ccc(N2CCN(C(=O)c3cc4cc(C(C)=O)ccc4[nH]3)CC2)cc1` [TG6-238]: the IC50 was 800 nM in [1] (Table 2, read-out: IC50 Nox2) and not below 20000 nM in [6].
For the compound `CNC(=O)c1ccc2[nH]c(C(=O)N3CCN(c4ccc(OC)c(F)c4)CC3)cc2c1` [TG6-254-2], the IC50 in series [1] (Table 2, read-out: IC50 Nox2) was found to be 10000 nM.
With `COC(=O)c1ccc2[nH]c(C(=O)N3CCN(c4ccc(OC)cc4)CC3)cc2c1` [TG6-222], the IC50 in [1] (Table 2, read-out: IC50 Nox2) is 300 nM; in series [6], more than 20000 nM.
The corresponding values for `COc1ccc(N2CCN(C(=O)c3cnc4cc(C(C)=O)ccc4c3O)CC2)cc1` [TG6-239] are 1000 nM and not below 20000 nM.
In the case of `COC(=O)C1CN(c2ccc(OC)cc2)CCN1C(=O)c1nc2cc(F)ccc2[nH]1` (centres unmarked) [TG6-235], the IC50 in series [1] (Table 2, read-out: IC50 Nox2) is 1000 nM; in series [6] it was more than 20000 nM.
As to `COc1ccc(N2CCN(C(=O)c3cnc4c(F)cccc4c3O)CC2)cc1` [TG6-192], in series [1] (Table 2), the “IC50 Nox2” value is on record as “Not active”.
In the case of `CC(=O)c1ccc2[nH]c(C(=O)N3CCN(c4ccc(OC(C)C)cc4)CC3)cc2c1` [TG6-251-2], in [1] (Table 2, read-out: IC50 Nox2), the IC50 was 1000 nM.
In the case of `COc1ccc(N2CCN(C(=O)c3cc4cc(Br)ccc4[nH]3)CC2)cc1` [TG6-203], 0.3 µM produced 30% inhibition in [1].
Take `COc1ccc(N2CCN(C(=O)c3cc4cc(C(N)=O)ccc4[nH]3)CC2)cc1F` [TG6-254-1]: the IC50 in series [1] (Table 2, read-out: IC50 Nox2) came to 2000 nM.
As for `COc1ccc(N2CCN(C(=O)c3cc4ccccc4[nH]3)CC2)cc1` [TG6-225], the IC50 in series [1] (Table 2, read-out: IC50 Nox2) is 500 nM; in [1] (setting [10]) it was 400 nM; in series [2], 200 nM; in series [6], more than 20000 nM; in series [3] it was 500 nM. Further, in [5], the solubility is less than 25 µM. In addition, the half-life in series [7] was 5 h; in [8] it was 2.5 h; in series [9], 4.2 h.
`COc1ccc(N2CCN(C(=O)c3cc4cc(S(C)(=O)=O)ccc4[nH]3)CC2)cc1` [TG6-218] displayed an inhibition at 6 µM in series [1] of 40%.
For the compound `O=C(c1cc2cc(O)ccc2[nH]1)N1CCN(c2ccc(OC(F)(F)F)cc2)CC1` [TG6-205-2], the IC50 worked out at 1500 nM in [1] (Table 2, read-out: IC50 Nox2) and 200 nM in series [6].
As for `COc1ccc(N2CCN(C(=O)c3[nH]c4ccc(F)cc4c3CNC3CCN(C)CC3)CC2)cc1` [TG7-32, (5-fluoro-3-(((1-methylpiperidin-4-yl)amino)methyl)-1H-indol-2-yl)(4-(4-methoxyphenyl)piperazin-1-yl)methanone], the IC50 turned out to be 700 nM in series [1] (setting [10]), 200 nM in series [2], 500 nM in [3] and 600 nM in [4]. Further, in series [5], the solubility turned out to be 250 µM (≈ 120 µg/mL).
For `COc1ccc(N2CCN(C(=O)c3cc4cc(F)ccc4[nH]3)CC2)cc1` [TG6-179-1], the IC50 in series [1] (Table 2, read-out: IC50 Nox2) is 5000 nM.
Still for that read-out and setting: under `COc1ccc(N2CCN(C(=O)c3[nH]c4ccc(F)cc4c3C)CC2)cc1` [TG6-200] stands 700 nM.
On to `CNC(=O)c1ccc2[nH]c(C(=O)N3CCN(c4ccc(OC)cc4)CC3)cc2c1` [TG6-223], for which the IC50 is 500 nM in [1] (Table 2, read-out: IC50 Nox2) and more than 20000 nM in series [6].
For `COc1ccc(N2CCN(C(=O)c3cnc4ccc(F)cc4c3O)CC2)cc1` [TG6-191], in series [1] (Table 2, read-out: IC50 Nox2), the IC50 was determined as 1500 nM.
Consider `COc1ccc(N2CCN(C(=O)c3cc4cc(O)ccc4[nH]3)CC2)cc1` [TG6-199], for which the IC50 was 500 nM in series [1] (Table 2, read-out: IC50 Nox2) and less than 100 nM in [6].
The corresponding values for `CC(C)Oc1ccc(N2CCN(C(=O)c3nc4cc(C(N)=O)ccc4[nH]3)CC2)cc1` [TG6-251-1] are 1000 nM and not below 20000 nM.
On the same counts, the results for `COc1ccc(N2CCN(C(=O)c3nc4cc(OC)ccc4[nH]3)CC2)cc1` [TG6-228] are 1000 nM and more than 20000 nM.
For the compound `COc1ccc(N2CCN(C(=O)c3[nH]c4ccc(C(C)=O)cc4c3C)CC2)cc1` [TG6-190], the IC50 in series [1] (Table 2, read-out: IC50 Nox2) was determined as 1000 nM.
In series [1], `O=C(c1cc2cc([N+](=O)[O-])ccc2[nH]1)N1CCN(c2ccc(OC(F)(F)F)cc2)CC1` [TG6-209] showed an inhibition at 2 µM of 25%.
For the compound `COc1ccc(N2CCN(C(=O)c3cc4cc(C(=O)O)ccc4[nH]3)CC2)cc1` [TG6-236], the IC50 is 500 nM in [1] (Table 2, read-out: IC50 Nox2) and more than 20000 nM in series [6].
For the compound `COc1ccc(N2CCN(C(=O)c3cc4cc(OC)ccc4[nH]3)CC2)cc1` [TG6-179-2], the IC50 in [1] (Table 2, read-out: IC50 Nox2) stood at 500 nM.
